The target in data set [1] is T1, aldose reductase (Sus scrofa, UniProt P80276).
T1 construct: swine lenses freeze-stored at -80°C were homogenized with distilled water; from tissue; host or cells: swine lens
The experiment in a line: Aldose reductase inhibitory action (method of S. Hayman et al., absorbance change at 340 nm). The format is biochemical, swine. The method, then:
That is, swine lenses freeze-stored at -80°C were homogenized with distilled water and cetrifuged at 10,000 G for 15 minutes. The supernatant was prepared into a 40% ammonium sulfate solution and subjected to cetrifugation at 10,000 G for 10 minutes.
The activity of aldose reductase was determined by the above-mentioned method of S. Hayman et al. That is, the above-mentioned enzyme solution (25 µl) and a drug solution (25 µl) dissolved in 1% DMSO at various concentrations were added to a 40 mM phosphate buffer (200 µl, pH 6.2) containing final concentrations of 0.4 M lithium sulfate, 0.1 mM NADPH (reduced type nicotinamide adenine dinucleotide phosphate) and 3 mM dl-glyceraldehyde as a substrate. […] The test drug number indicates the example number to be mentioned later. […]

Data set [2] concerns sorbitol accumulation in tissues. Put plainly: Inhibitory action on sorbitol accumulation in tissues of rats with experimental diabetes (streptozotocin). The format is in vivo, Sprague-Dawley rats. Conditions: percent of control (100%), oral at 4, 8 and 24 hours after streptozotocin, Example 9 at 10 mg/kg, EPALRESTAT at 30 mg/kg, 3 hours after final administration; for Sorbitol accumulation, nerve: sciatic nerve. As for the experimental part: Sprague-Dawley rats (male, 6 weeks old, 5-6 per group) were fasted for 18 hours and injected with streptozotocin (SIGMA, 60 mg/kg) via the tail vein under etherization to prepare rats with diabetes.
The test drugs were orally administered at 4, 8 and 24 hours after the injection of streptozotocin. The compound of Example 9 was administered at 10 mg/kg and EPALRESTAT was administered at 30 mg/kg as a 0.5% carboxymethylcellulose suspension, respectively. During the administrations, the rats were raised under free access to feed and water and the sorbitol content in the tissues (erythrocytes, sciatic nerve, lens) was determined 3 hours after the final administration, according to the enzyme method of H.Y. Bergmeyer et al. [Methods of Enzymatic Analysis, vol. 3, 1323-1330 (1974)] with the use of SDH (sorbitol dehydrogenase) and NAD (β-nicotinamide adenine dinucleotide). The results (sorbitol accumulation) are expressed in percent (%) relative to the value of a control group administered with a 0.5% carboxymethylcellulose solution (solvent) instead of the drug, which was taken as 100%.

Data set [3] has as its system ICR mice. Put plainly: Acute toxicity of a single oral dose. In kind it is in vivo. Conditions: 300 mg/kg single oral dose, male ICR mice, observation for 14 days. As for the experimental part:
Normal ICR mice (male, 7 weeks old, 5 per group) were fasted for 18 hours and the compound (300 mg/kg) of Example 9 was orally administered as a 0.5% carboxymethylcellulose suspension. To the control group, a 0.5% carboxymethylcellulose solution alone was orally administered and observation was continued for 14 days thereafter, during which period the mice were allowed to take feed and water freely.

Setting [4] is: swine lens enzyme, 3 mM dl-glyceraldehyde as substrate, 0.1 mM NADPH, pH 6.2, 25°C, read-out: IC₅₀.

SMILES strings stand for the structures. pIC50: −log10 of the molar value. Read-outs that look alike come from different tables or passages of the source. Marks after values point to notes of the source that are not given here.

Consider `O=C(O)CC1Sc2ncccc2N(Cc2nc3c(F)c(F)ccc3s2)C1=O` (stereo not shown) [Compound of Ex.10, 2-[4-(4,5-Difluorobenzothiazol-2-yl)methyl-3-oxo-3,4-dihydro-2H-pyrido[2,3-b][1,4]thiazin-2-yl]acetic acid], for which the pIC50 in data set [1] (setting [4]) was 7.92.
With `O=C(O)CC1Sc2ncccc2N(Cc2nc3c(Cl)c(Cl)ccc3s2)C1=O` (stereo not shown) [Compound of Ex.12, 2-[4-(4,5-Dichlorobenzothiazol-2-yl)methyl-3-oxo-3,4-dihydro-2H-pyrido[2,3-b][1,4]thiazin-2-yl]acetic acid], in data set [1] (setting [4]), the pIC50 is 7.92.
`O=C(O)CC1Sc2cnccc2N(Cc2nc3c(F)c(F)cc(F)c3s2)C1=O` (stereo not shown) [Compound of Ex.14, 2-[4-(4,5,7-Trifluorobenzothiazol-2-yl)methyl-3-oxo-3,4-dihydro-2H-pyrido[3,4-b][1,4]thiazin-2-yl]acetic acid]: in data set [1] (setting [4]), the pIC50 is 7.92.
Turning to `O=C(O)CC1Sc2ncccc2N(Cc2nc3c(F)c(F)cc(F)c3s2)C1=O` (stereo not shown) [Compound of Ex. 9, 2-[4-(4,5,7-Trifluorobenzothiazol-2-yl)methyl-3-oxo-3,4-dihydro-2H-pyrido[2,3-b][1,4]thiazin-2-yl]acetic acid], in data set [1] (setting [4]), the pIC50 is 7.96. Further, in data set [2], the “Sorbitol accumulation, erythrocytes” value is 59.0* %; the “Sorbitol accumulation, lens” value is reported as 66.2* %; the “Sorbitol accumulation, nerve” value is reported as 3.3* %. Besides, in data set [3], the death cases entry is “no death case”. In data set [3] (compared with control group), the body weight transition entry is recorded as “showed transition in the same manner as in the control group”.
With `CC(/C=C1\SC(=S)N(CC(=O)O)C1=O)=C\c1ccccc1` [EPALRESTAT, reference compound], the pIC50 in data set [1] is 7.68. Further, in data set [2], the “Sorbitol accumulation, erythrocytes” value was 66.5%; the “Sorbitol accumulation, lens” value came out at 89.1%; the “Sorbitol accumulation, nerve” value amounted to 99.9%.

These data come from EP0644194A1, “PYRIDOTHIAZINEACETIC ACID COMPOUND, PROCESS FOR PRODUCING THE SAME, AND USE THEREOF” (THE GREEN CROSS CORPORATION, priority 1993, dated 1994).
